One series deals with EBV. The series is described as follows: EBV replication in TPA-induced P3HR-1 cells (TaqMan PCR). It is filed as cell-based, Epstein-Barr virus. As for the experimental part:
(§1) Human P3HR-1 cells are latently infected with EBV. Culturing these cells in the presence of phorbol ester induces a lytic infection cycle, resulting in stimulation of viral replication within the cells. Compound efficacy in this assay is determined using TaqMan PCR technology, and compound toxicity is measured by addition of Promega's Cell Titer Aqueous One Solution (metabolic dye).
1. P3HR-1 cells are counted by the trypan blue dye exclusion method, and the cell count/ml is determined. Cells are pelleted by centrifugation and washed once with PBS to minimize the basal level of virus released from untreated cells which spontaneously enter the lytic cycle and release virus.
2. Cells are resuspended in fresh media and adjusted to the appropriate cell density. Cells are then plated in the interior wells of 96-well round-bottom microtiter plates in a volume of 50 μl per well.
3. The phorbol ester TPA is added to appropriate wells in a volume of 50 μl per well to yield a final concentration of 15 ng/ml. Medium is added in place of TPA in three wells to serve as a negative control.
4. […]
5. A standard curve prepared from known copy numbers of DNA isolated from P3HR-1 cells and amplified is run with each plate in order to quantitate the DNA copy number in each original sample. The efficacy of the compound is determined by comparing DNA copy numbers from test wells with those of control wells.
For orientation: Real-time PCR tracks product formation cycle by cycle.

The next series relates to P3HR-1 cells. The series is described as follows: Compound toxicity in P3HR-1 cells (Cell Titer Aqueous One). In kind it is cell-based, human. The following applies: P3HR1 cells; read-out: TC50 (the source's name). The method, then:
as §1
6. Duplicate plates are set up plating media in place of TPA for evaluation of compound toxicity.
6. Twenty micorliters of Cell Titer Aqueous One Solution (Promega) is added to each well of the toxicity plates. Plates are incubated at 37° C. in a humidified CO2 incubator for 4 hours or until sufficient color development has occurred. Plates are read on a VMax microtiter plate reader at a wavelength of 490/650 nm. Toxicity of the test compound is determined by comparing the optical density of test wells with that of control wells.

The test system of series [1] is Respiratory Syncytial Virus (Long). In kind it is cell-based. As for the experimental part: A cytoprotection assay procedure using MTS is employed to evaluate compounds for antiviral activity against Respiratory Syncytial Virus (Long) in Vero (African green monkey, ATCC Cat. No. CCL-81) cells. The cells are pre-grown overnight at 37° C. (2×10^4/well in 96 well tissue culture plates) with 10% fetal Bovine serum containing Minimum Essential Medium. The positive control for the assay is Interferon-Gamma/Ribavirin. The infection medium contains reduced serum levels (2% FBS).
Using half log dilutions with high test starting at 100 μg/ml the drug dilutions are made and added to triplicate cultures in 0.1 ml volume and pre-titrated virus suspension is also added in 0.1 ml volume. Cell control containing medium alone, virus controls containing medium and virus, the drug toxicity controls containing medium and each drug concentrations are run simultaneously with the test samples. […] CPE inhibition is determined by dye uptake procedure (Celltiter-MTS). Celltiter reagent contains a novel tetrazolium (MTS) compound and an electron coupling reagent phenazine ethosulfate (PES). MTS-tetrazolium is bioreduced by cells into a colored formazan product that is soluble in tissue culture medium. This conversion is accomplished by NADPH or NADH produced by dehydrogenase enzymes in metabolically active cells. The amount of soluble formazan produced by cellular reduction of the MTS is measured by the absorbance at 490 nm. The quantity of formazan product as measured by the amount of 490 nm absorbance is directly proportional to the number of living cells in the culture thus allowing the rapid quantitative analysis of the inhibition of virus-induced cell killing by the test substances. […]
The inhibitory drug concentration which reduces the viral replication by 95% (IC95) and the minimum drug concentration which inhibits cell growth by 95% (TC95) are calculated by using a regression analysis program for semilog curve fitting. A therapeutic (selectivity) index (TI) for compound No. 4 is determined by dividing the TC95 by the IC95.

Results on one compound are retold here after patent US20030203969A1, “Pharmaceutically active aromatic guanylhydrazones” (priority 2000, published 2003).

With `CC(=NNC(=N)N)c1cc(NC(=O)CCCCCCCCC(=O)Nc2cc(C(C)=NNC(=N)N)cc(C(C)=NNC(=N)N)c2)cc(C(C)=NNC(=N)N)c1` [Compound 4, N,N′-bis (3,5-diacetylphenyl) decane diamide tetrakis (amidinohydrazone)], in the series on EBV (EBV, P3HR1 cells), the Comments result is given as “Significant Activity”. The IC50 (usually the concentration that inhibits the measured activity by half) was 2300 nM in the series with EBV (EBV-infected P3HR1 cells, day 4) and 1460 nM in series [1] (Vero cells newly infected with RSV). For the same compound, the CC50 in the series with P3HR-1 cells was found to be 21.8 µM. The Comment entry in series [1] (RSV, at the IC95/TC95 level) is “Active”. Also, the IC95 (in general, the concentration at which the effect reaches the 95% level) in series [1] (reduces the viral replication by 95%) came out at 2.96 µM.
